Data reported in ChEMBL document CHEMBL1134238, “Synthesis of metabolically blocked paclitaxel analogues” (Bioorg Med Chem Lett, 2001).

Assays:
[1] = tested on: M109; assay: Compound was tested in vivo against M109 using Madison murine lung carcinoma (M109) tumor model at 200 mg/kg; format: functional, Mus musculus
[2] = tested on: HCT-116; assay: Compound was tested for cytotoxicity against human colon tumor cell line (HCT116); format: functional, cell-based
[3] = target: Tubulin alpha chain (Sus scrofa) (UniProt P02550); assay: Compound was tested in vitro for inhibition of tubulin polymerization, expressed as ratio to that obtained for paclitaxel; format: functional; conditions: Homo sapiens
Tubulin alpha chain (Sus scrofa), sequence (P02550 whole entry, looked up): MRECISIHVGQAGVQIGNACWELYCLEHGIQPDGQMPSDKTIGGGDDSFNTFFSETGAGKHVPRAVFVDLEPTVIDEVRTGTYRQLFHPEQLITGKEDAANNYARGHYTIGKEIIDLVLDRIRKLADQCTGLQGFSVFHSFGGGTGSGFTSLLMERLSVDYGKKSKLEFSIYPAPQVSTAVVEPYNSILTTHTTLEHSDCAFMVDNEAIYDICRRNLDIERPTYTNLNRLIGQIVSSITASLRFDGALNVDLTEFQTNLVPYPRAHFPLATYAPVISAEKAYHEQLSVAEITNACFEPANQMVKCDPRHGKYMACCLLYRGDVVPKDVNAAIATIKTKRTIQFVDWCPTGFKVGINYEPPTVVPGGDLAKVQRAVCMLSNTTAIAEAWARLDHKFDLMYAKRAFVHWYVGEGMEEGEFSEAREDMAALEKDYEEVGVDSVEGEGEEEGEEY

[4] = tested on: M109; assay: Compound was tested in vivo against M109 using Madison murine lung carcinoma (M109) tumor model at 32 mg/kg; format: functional, Mus musculus
[5] = tested on: M109; assay: Compound was tested in vivo against M109 using Madison murine lung carcinoma (M109) tumor model at 40 mg/kg; format: functional, Mus musculus

SMILES	Tubulin polymerization [3]	T/C [1]	IC50 [2]	T/C [4]	T/C [5]
CC(=O)O[C@H]1C(=O)[C@@]2(C)C([C@H](OC(=O)c3ccccc3)[C@]3(O)C[C@H](OC(=O)[C@H](O)[C@@H](NC(=O)c4ccccc4)c4ccccc4)C(C)=C1C3(C)C)[C@]1(OC(C)=O)CO[C@@H]1[C@@H](Cl)[C@@H]2O (some centres undefined)	0.8	203%	1.2 nM	–	–
CC(=O)O[C@H]1C(=O)[C@@]2(C)C([C@H](OC(=O)c3ccccc3)[C@]3(O)C[C@H](OC(=O)[C@H](O)[C@@H](NC(=O)OC(C)(C)C)c4ccccc4)C(C)=C1C3(C)C)[C@]1(OC(C)=O)CO[C@@H]1C[C@@H]2O (some centres undefined)	0.7	–	1.8 nM	177%	–
CC(=O)O[C@H]1C(=O)[C@@]2(C)C([C@H](OC(=O)c3ccccc3)[C@]3(O)C[C@H](OC(=O)[C@H](O)[C@@H](NC(=O)c4ccccc4)c4ccccc4)C(C)=C1C3(C)C)[C@]1(OC(C)=O)CO[C@@H]1[C@@H](F)[C@@H]2O (some centres undefined)	1	–	1.4 nM	–	–
CC(=O)O[C@H]1C(=O)[C@@]2(C)C([C@H](OC(=O)c3ccccc3)[C@]3(O)C[C@H](OC(=O)[C@H](O)[C@@H](NC(=O)OC(C)(C)C)c4ccccc4)C(C)=C1C3(C)C)[C@]1(OC(C)=O)CO[C@@H]1[C@@H](F)[C@@H]2O (some centres undefined)	0.6	–	0.2 nM	–	–

Further lines, with some results ahead:

Tubulin polymerization [3]	SMILES	T/C [1]	IC50 [2]	T/C [4]	T/C [5]
1	CC(=O)O[C@H]1C(=O)[C@@]2(C)[C@H]([C@H](OC(=O)c3ccccc3)[C@]3(O)C[C@H](OC(=O)[C@H](O)[C@@H](NC(=O)c4ccccc4)c4ccccc4)C(C)=C1C3(C)C)[C@]1(OC(C)=O)CO[C@@H]1C[C@@H]2O [PACLITAXEL]	–	–	–	215%
1.1	CC(=O)O[C@H]1C(=O)[C@@]2(C)C([C@H](OC(=O)c3ccccc3)[C@]3(O)C[C@H](OC(=O)[C@H](O)[C@@H](NC(=O)c4ccccc4)c4ccccc4)C(C)=C1C3(C)C)[C@]1(OC(C)=O)CO[C@@H]1[C@@H](Br)[C@@H]2O (some centres undefined)	–	2.6 nM	–	–
